# Data taken from US20230355646A1, “AUTOPHAGY ACTIVATOR” (Resonac Corporation, priority 2020, published 2023).
# Assays:
# [1] = system: ATG5 gene; experiment: ATG5 gene expression promoting effect in human senescent fibroblasts (quantitative real-time PCR); assay type: cell-based
# Description: (§1) Normal human fibroblasts (NB1RGB, RIKEN BRC Cell Bank) were cultured until confluent in D-MEM medium (manufactured by Sigma-Aldrich) to which 10% fetal bovine serum (manufactured by MP Biomedicals) was added. Thereafter, the cells were treated with 250 μM aqueous hydrogen peroxide for 2 hours, and cultured for 24 hours in D-MEM medium to which fresh 10% fetal bovine serum was added. The treatment with aqueous hydrogen peroxide and the cell culture operation were repeated three times, and the obtained fibroblasts were used as senescent fibroblasts.
# (§2) The prepared senescent fibroblasts were prepared at a seeding density of 10000 cells/cm^2 and cultured for 24 hours in D-MEM medium (manufactured by Sigma-Aldrich) to which 10% fetal bovine serum (manufactured by MP Biomedicals) was added. […]
# Then, using Nucleospin (registered trademark) RNA kit (manufactured by Takara Bio Inc.), RNA was extracted from senescent fibroblasts or normal human fibroblasts in each example, and cDNA was synthesized from the obtained RNA. Next, using this cDNA as a template, by quantitative real-time PCR, the expression level of each gene was quantified using primers (manufactured by Takara Bio Inc.) specific to the LC3 gene, ATG5 gene, and ATG7 gene, respectively. […]
# [2] = system: mTOR gene; experiment: mTOR gene expression suppression effect in human senescent fibroblasts (quantitative real-time PCR); assay type: cell-based
# Description: as §1, §2
# Then, using Nucleospin (registered trademark) RNA kit (manufactured by Takara Bio Inc.), RNA was extracted from senescent fibroblasts or normal human fibroblasts in each example, and cDNA was synthesized from the obtained RNA. Next, using this cDNA as a template, by quantitative real-time PCR, the expression level of mTOR gene was quantified using primers (manufactured by Takara Bio Inc.) specific to mTOR gene. […]
compound,measurement,setting,value
"COc1ccc([C@@H]2CC(=O)c3c(O)cc(O[C@@H]4O[C@H](CO[C@@H]5O[C@@H](C)[C@H](O)[C@@H](O)[C@H]5O)[C@@H](O)[C@H](O)[C@H]4O)cc3O2)cc1O [Comparative Example 2, hesperidin]",Relative gene expression level ATG5,"[1]; 10^−2% (V/V) methyl hesperidin or hesperidin, additional ingredient where in the example, 24 hours, Comparative Example 1 (DMSO) = 1.00",0.93
same,expression level of the ATG5 gene (in words),[1]; compared to DMSO only of Comparative Example 1,more decreased
same,Relative gene expression level mTOR,"[2]; 10^−2% (V/V) methyl hesperidin or hesperidin, additional ingredient where in the example, 24 hours, Comparative Example 3 (DMSO) = 1.00",1.16
same,expression level of mTOR gene (in words),[2]; compared to DMSO only of Comparative Example 3,almost the same
